According to US20020026053A1, “Novel 3-(substituted) -2- indolinones compounds and use thereof as inhibitors of protein kinase activity” (priority 1997, published 2002):

Legend:
FLK-1 receptor = experiment: FLK-1 Assay (cellular/catalytic ELISA, VEGF-stimulated phosphotyrosine); assay type: cell-based; parameters: concentration or dose not given beside the values
Summary of the method: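 NIH3T3 C7#3 cells engineered to express Flk-1 were serum-starved overnight (0.1% FBS), then exposed to compound for 2 h at 37 °C (final dilution 1:200, 0.5% DMSO) before VEGF stimulation. Lysates captured on anti-FLK-1 antiserum plates; phosphotyrosine detected by UB40 antibody/POD-ABTS ELISA versus untreated controls.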

PDGF-R = PDGF-R Assay (cellular ELISA, U1242 cells); assay type: cell-based; parameters: concentration or dose not given beside the values
Summary of the method: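 U1242 cells seeded in 0.5% serum, serum-starved, then exposed to compound for 2 hr at 37°C before 5–10 min ligand stimulation and lysis in HNTG. Lysate captured on receptor-antibody-coated plates; phosphotyrosine detected with polyclonal anti-pTyr, goat anti-rabbit IgG and ABTS/H2O2, A410 (ref 630 nm), versus untreated cells.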

SMILES	Flk Kinase % Inhibition (P.110) (FLK-1 receptor)	PDGF Kinase % Inhibition (P.119) (PDGF-R)
Cc1c(O)ccc(C=C2C(=O)Nc3c(Br)cc(Br)c(C)c32)c1O [10718/H09]	−5.0%	–
Cc1c(Br)cc(Br)c2c1C(=Cc1ccco1)C(=O)N2 [10718/H10]	1.4%	–
Cc1c(Br)cc(Br)c2c1C(=Cc1ccc([N+](=O)[O-])o1)C(=O)N2 [10718/H11]	13.0%	–
CCOc1ccc(C=C2C(=O)Nc3c(Br)cc(Br)c(C)c32)cc1OC [10719/H02]	22.0%	–
Cc1c(Br)cc(Br)c2c1C(=Cc1ccc(O)c(O)c1)C(=O)N2 [10719/H03]	−40.4%	–
COc1ccc(C=C2C(=O)Nc3c(Br)cc(Br)c(C)c32)c(OC)c1 [10719/H04]	3.4%	–
CCc1c(C)[nH]c(C=C2C(=O)Nc3c(Br)cc(Br)c(C)c32)c1C [10719/H05]	18.5%	–
COc1cc(OC)c(C=C2C(=O)Nc3c(Br)cc(Br)c(C)c32)c(OC)c1 [10719/H06]	17.8%	–
CCN(CC)c1ccc(C=C2C(=O)Nc3c(Br)cc(Br)c(C)c32)c(O)c1 [10734/H05]	1.6%	−14.4%
Cc1c(Br)cc(Br)c2c1C(=Cc1ccc([N+](=O)[O-])cc1)C(=O)N2 [10734/H06]	2.6%	−26.3%
Cc1c(Br)cc(Br)c2c1C(=Cc1cc(Br)cc(Br)c1O)C(=O)N2 [10734/H07]	1.4%	−6.4%
Cc1c(Br)cc(Br)c2c1C(=Cc1cccc(F)c1O)C(=O)N2 [10734/H08]	−2.2%	2.9%
Cc1c(Br)cc(Br)c2c1C(=Cc1ccc(O)c(Br)c1)C(=O)N2 [10734/H09]	−2.2%	−19.2%
Cc1c(Br)cc(Br)c2c1C(=Cc1ccc(C(C)(C)C)cc1)C(=O)N2 [10734/H10]	3.9%	−17.9%
Cc1c(Br)cc(Br)c2c1C(=Cc1ccc(Br)s1)C(=O)N2 [10734/H11]	9.9%	−17.9%
Cc1ccccc1C=C1C(=O)Nc2c(Br)cc(Br)cc21 [10735/A02]	−13.4%	14.3%
O=C1Nc2c(Br)cc(Br)cc2C1=Cc1ccc(F)c(F)c1 [10735/A03]	−1.0%	21.9%
O=C1Nc2c(Br)cc(Br)cc2C1=Cc1cc(F)cc(F)c1 [10735/A04]	−20.8%	18.8%
O=C1Nc2c(Br)cc(Br)cc2C1=Cc1cccc(C(F)(F)F)c1 [10735/A05]	−12.2%	0.9%
O=C1Nc2c(Br)cc(Br)cc2C1=Cc1cc(C(F)(F)F)cc(C(F)(F)F)c1 [10735/A06]	−8.5%	4.7%
N#Cc1ccccc1C=C1C(=O)Nc2c(Br)cc(Br)cc21 [10735/A07]	−1.3%	0.5%
O=C1Nc2c(Br)cc(Br)cc2C1=Cc1c(F)cccc1F [10735/A08]	−19.6%	5.3%
O=C1Nc2c(Br)cc(Br)cc2C1=Cc1cccc2ccccc12 [10735/A09]	−6.3%	1.9%
O=C1Nc2c(Br)cc(Br)cc2C1=Cc1ccc(Cl)cc1Cl [10735/A10]	2.2%	−0.2%
O=C1Nc2c(Br)cc(Br)cc2C1=Cc1ccc(-c2ccccc2)cc1 [10735/A11]	2.2%	5.7%
Cc1ccccc1C=C1C(=O)Nc2ccc(I)cc21 [10735/B02]	1.1%	22.6%
O=C1Nc2ccc(I)cc2C1=Cc1ccc(F)c(F)c1 [10735/B03]	−14.3%	16.4%

SMILES	Flk Kinase % Inhibition (P.110) (FLK-1 receptor)	PDGF Kinase % Inhibition (P.119) (PDGF-R)
O=C1Nc2ccc(I)cc2C1=Cc1cc(F)cc(F)c1 [10735/B04]	6.1%	2.9%
O=C1Nc2ccc(I)cc2C1=Cc1cccc(C(F)(F)F)c1 [10735/B05]	7.4%	17.4%
O=C1Nc2ccc(I)cc2C1=Cc1cc(C(F)(F)F)cc(C(F)(F)F)c1 [10735/B06]	17.5%	14.0%
N#Cc1ccccc1C=C1C(=O)Nc2ccc(I)cc21 [10735/B07]	−5.9%	0.5%
O=C1Nc2ccc(I)cc2C1=Cc1c(F)cccc1F [10735/B08]	1.6%	9.8%
O=C1Nc2ccc(I)cc2C1=Cc1cccc2ccccc12 [10735/B09]	15.9%	−0.5%
O=C1Nc2ccc(I)cc2C1=Cc1ccc(Cl)cc1Cl [10735/B10]	9.2%	3.6%
O=C1Nc2ccc(I)cc2C1=Cc1ccc(-c2ccccc2)cc1 [10735/B11]	15.7%	−8.8%
Cc1ccccc1C=C1C(=O)Nc2ccc(Br)c(C)c21 [10735/C02]	0.1%	4.7%
Cc1c(Br)ccc2c1C(=Cc1ccc(F)c(F)c1)C(=O)N2 [10735/C03]	0.9%	4.3%
Cc1c(Br)ccc2c1C(=Cc1cc(F)cc(F)c1)C(=O)N2 [10735/C04]	17.2%	12.9%
Cc1c(Br)ccc2c1C(=Cc1cccc(C(F)(F)F)c1)C(=O)N2 [10735/C05]	11.2%	20.5%
Cc1c(Br)ccc2c1C(=Cc1cc(C(F)(F)F)cc(C(F)(F)F)c1)C(=O)N2 [10735/C06]	18.2%	25.0%
Cc1c(Br)ccc2c1C(=Cc1ccccc1C#N)C(=O)N2 [10735/C07]	9.6%	11.9%
Cc1c(Br)ccc2c1C(=Cc1c(F)cccc1F)C(=O)N2 [10735/C08]	10.1%	−2.6%
Cc1c(Br)ccc2c1C(=Cc1cccc3ccccc13)C(=O)N2 [10735/C09]	24.5%	−2.6%
Cc1c(Br)ccc2c1C(=Cc1ccc(Cl)cc1Cl)C(=O)N2 [10735/C10]	21.0%	4.0%
Cc1c(Br)ccc2c1C(=Cc1ccc(-c3ccccc3)cc1)C(=O)N2 [10735/C11]	18.6%	−2.9%
CNS(=O)(=O)c1ccc2c(c1)C(=Cc1ccccc1C)C(=O)N2 [10735/D02]	0.9%	11.6%
CNS(=O)(=O)c1ccc2c(c1)C(=Cc1ccc(F)c(F)c1)C(=O)N2 [10735/D03]	4.5%	12.9%
CNS(=O)(=O)c1ccc2c(c1)C(=Cc1cc(F)cc(F)c1)C(=O)N2 [10735/D04]	9.1%	8.5%
CNS(=O)(=O)c1ccc2c(c1)C(=Cc1cccc(C(F)(F)F)c1)C(=O)N2 [10735/D05]	29.5%	20.5%
CNS(=O)(=O)c1ccc2c(c1)C(=Cc1cc(C(F)(F)F)cc(C(F)(F)F)c1)C(=O)N2 [10735/D06]	16.2%	14.7%
CNS(=O)(=O)c1ccc2c(c1)C(=Cc1ccccc1C#N)C(=O)N2 [10735/D07]	21.6%	3.6%
CNS(=O)(=O)c1ccc2c(c1)C(=Cc1c(F)cccc1F)C(=O)N2 [10735/D08]	21.6%	−5.7%
CNS(=O)(=O)c1ccc2c(c1)C(=Cc1cccc3ccccc13)C(=O)N2 [10735/D09]	22.6%	6.7%
